As usually defined, the IC50 is the concentration that gives 50% inhibition.

We go through 18 molecules from ChEMBL document CHEMBL4665826, “Design, synthesis and biological evaluation of novel heptamethine cyanine dye-erlotinib conjugates as antitumor agents” (Bioorg Med Chem Lett, 2020).

One assay has as its system MDA-MB-231. Put plainly: Antiproliferative activity against human MDA-MB-231 cells assessed as reduction in cell growth by MTT assay. Type of assay: functional, cell-based. On the technique in general: Tetrazolium dyes change colour on reduction, which living cells bring about.
The subject of the next assay is NCI-H460. As to the kind of experiment: Antiproliferative activity against human NCI-H460 cells assessed as reduction in cell growth by MTT assay. The format is functional, cell-based.
The test system of assay [1] is A549. As to the kind of experiment: Antiproliferative activity against human A549 cells assessed as reduction in cell growth by MTT assay. Type of assay: functional, cell-based.
The next assay has as its system NCI-H1299. Put plainly: Antiproliferative activity against human NCI-H1299 cells assessed as reduction in cell growth by MTT assay. The format is functional, cell-based.
For assay [2], the target named is T1, Epidermal growth factor receptor (Homo sapiens, UniProt P00533). As to the kind of experiment: Inhibition of EGFR in human A549 cells measured after 30 hrs by ELISA. Type of assay: cell-based. In general terms: ELISA stands for enzyme-linked immunosorbent assay.
Another assay deals with MCF-10A. As to the kind of experiment: Cytotoxicity against human MCF-10A cells assessed as reduction in cell growth by MTT assay. Type of assay: cell-based.
Assay [3] relates to A549. Put plainly: Potency index, ratio of erlotinib IC50 to test compound IC50 for antiproliferative activity against human A549 cells assessed as reduction in cell growth by MTT assay. The format is functional.
In assay [4] the target is T1, Epidermal growth factor receptor. As to the kind of experiment: Potency index, ratio of erlotinib IC50 to test compound IC50 for EGFR in human A549 cells measured after 30 hrs by ELISA. The format is cell-based.

A value given as a limit tells only on which side of the number the result lay.

T1 sequence (P00533 whole entry): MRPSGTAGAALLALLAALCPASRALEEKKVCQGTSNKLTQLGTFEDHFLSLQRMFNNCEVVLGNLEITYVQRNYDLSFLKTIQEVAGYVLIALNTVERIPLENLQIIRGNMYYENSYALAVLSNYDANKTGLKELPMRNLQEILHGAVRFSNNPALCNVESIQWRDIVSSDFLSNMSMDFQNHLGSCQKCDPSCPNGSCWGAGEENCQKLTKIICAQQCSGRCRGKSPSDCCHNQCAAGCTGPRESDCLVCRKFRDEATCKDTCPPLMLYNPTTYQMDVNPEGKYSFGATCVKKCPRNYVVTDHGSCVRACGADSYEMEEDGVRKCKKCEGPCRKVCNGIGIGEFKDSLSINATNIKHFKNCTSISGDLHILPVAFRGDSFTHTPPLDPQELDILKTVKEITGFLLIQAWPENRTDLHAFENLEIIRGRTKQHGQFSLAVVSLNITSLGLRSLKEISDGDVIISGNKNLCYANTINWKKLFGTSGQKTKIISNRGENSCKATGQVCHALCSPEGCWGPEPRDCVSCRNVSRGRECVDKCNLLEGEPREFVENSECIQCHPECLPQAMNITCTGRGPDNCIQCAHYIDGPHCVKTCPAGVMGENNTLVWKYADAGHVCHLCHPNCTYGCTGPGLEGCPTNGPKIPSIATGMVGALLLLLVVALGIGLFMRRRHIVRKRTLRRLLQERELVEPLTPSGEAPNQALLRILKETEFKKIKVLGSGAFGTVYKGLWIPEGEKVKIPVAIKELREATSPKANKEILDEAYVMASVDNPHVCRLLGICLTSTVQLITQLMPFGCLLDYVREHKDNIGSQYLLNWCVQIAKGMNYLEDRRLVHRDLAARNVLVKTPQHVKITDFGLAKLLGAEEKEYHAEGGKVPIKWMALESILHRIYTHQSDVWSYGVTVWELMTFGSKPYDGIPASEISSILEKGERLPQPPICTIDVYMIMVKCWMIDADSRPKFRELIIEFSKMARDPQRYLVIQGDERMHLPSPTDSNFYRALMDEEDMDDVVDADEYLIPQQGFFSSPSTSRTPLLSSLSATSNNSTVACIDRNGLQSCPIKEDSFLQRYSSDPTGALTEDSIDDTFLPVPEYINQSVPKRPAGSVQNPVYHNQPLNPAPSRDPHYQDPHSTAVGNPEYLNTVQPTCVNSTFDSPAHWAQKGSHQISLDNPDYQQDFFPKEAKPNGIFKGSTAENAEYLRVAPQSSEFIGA

Take `CC(=O)O[C@H]1C(=O)[C@@]2(C)[C@H]([C@H](OC(=O)c3ccccc3)[C@]3(O)C[C@H](OC(=O)[C@H](O)[C@@H](NC(=O)c4ccccc4)c4ccccc4)C(C)=C1C3(C)C)[C@]1(OC(C)=O)CO[C@@H]1C[C@@H]2O` [PACLITAXEL]: the IC50 in the assay with MDA-MB-231 is less than 25 nM; in the assay on NCI-H460, less than 1 nM; with A549 [1], less than 1 nM; in the assay with NCI-H1299 it was 5 nM.
In the case of `C#Cc1cccc(Nc2ncnc3cc(OCCOC)c(OCCOC(=O)CCCCC[N+]4=C(/C=C/C=C/C=C/C=C5/N(CCCCCC(=O)O)c6ccc(OC)cc6C5(C)C)C(C)(C)c5cc(OC)ccc54)cc23)c1`, the IC50 was found to be 3300 nM with MDA-MB-231, 5120 nM in the assay on NCI-H460, 2590 nM in the assay on A549 [1] and 14900 nM in the assay on NCI-H1299.
In the case of `C#Cc1cccc(Nc2ncnc3cc(OCCOC)c(OCCOC(=O)CCCCC[N+]4=C(/C=C/C=C/C=C/C=C5/N(CCCC)c6ccccc6C5(C)C)C(C)(C)c5cc(C(F)(F)F)ccc54)cc23)c1`, the IC50 stood at 356 nM with MDA-MB-231; 813 nM with NCI-H460; 230 nM with A549 [1]; 205 nM in assay [2]; 541 nM in the assay with NCI-H1299.
In the case of `C#Cc1cccc(Nc2ncnc3cc(OCCOC)c(OCCOC(=O)CCCCC[N+]4=C(/C=C/C=C/C=C/C=C5/N(CCCC)c6ccc(OC)cc6C5(C)C)C(C)(C)c5cc(Br)ccc54)cc23)c1`, the 50% inhibitory concentration (IC50) in the assay with MDA-MB-231 turned out to be 833 nM; with NCI-H460, 855 nM; with A549 [1], 2080 nM; in the assay with NCI-H1299 it was 246 nM.
For `C#Cc1cccc(Nc2ncnc3cc(OCCOC)c(OCCOC(=O)CCCCC[N+]4=C(/C=C/C=C/C=C/C=C5/N(CCCCCC(=O)O)c6ccccc6C5(C)C)C(C)(C)c5ccccc54)cc23)c1` the same measures were 1620 nM, 7250 nM, 1130 nM and 5140 nM.
For `C#Cc1cccc(Nc2ncnc3cc(OCCOC)c(OCCOC(=O)CCCCC[N+]4=C(/C=C/C5=C(Cl)C(=C/C=C6/N(CCCCCC(=O)O)c7ccccc7C6(C)C)/CCC5)C(C)(C)c5ccccc54)cc23)c1` the same measures were 4310 nM, 15200 nM, 9040 nM and 6960 nM.
Turning to `C#Cc1cccc(Nc2ncnc3cc(OCCOC)c(OCCOC(=O)CCCCC[N+]4=C(/C=C/C=C/C=C/C=C5/N(CCCC)c6ccc(OC)cc6C5(C)C)C(C)(C)c5cc(C)ccc54)cc23)c1`, the IC50 in the assay with MDA-MB-231 is 531 nM; with NCI-H460, 827 nM; with A549 [1] it was 678 nM; in the assay on NCI-H1299 it was 1350 nM.
In the case of `C#Cc1cccc(Nc2ncnc3cc(OCCOC)c(OCCOC(=O)CCCCC[N+]4=C(/C=C/C=C/C=C/C=C5/N(CCCC)c6ccccc6C5(C)C)C(C)(C)c5cc(C)ccc54)cc23)c1`, the IC50 stood at 313 nM in the assay with MDA-MB-231, 2120 nM in the assay on NCI-H460, 2070 nM in the assay with A549 [1] and 1740 nM in the assay with NCI-H1299.
For `C#Cc1cccc(Nc2ncnc3cc(OCCOC)c(OCCOC(=O)CCCCC[N+]4=C(/C=C/C=C/C=C/C=C5/N(CCCC)c6ccc(OC)cc6C5(C)C)C(C)(C)c5cc(OC)ccc54)cc23)c1`, in that order: less than 125 nM, 217 nM, 455 nM and 110 nM.
Consider `C#Cc1cccc(Nc2ncnc3cc(OCCOC)c(OCCOC(=O)CCCCC[N+]4=C(/C=C/C5=C(Cl)C(=C/C=C6/N(CCCCCC(=O)O)c7ccc(Br)cc7C6(C)C)/CCC5)C(C)(C)c5cc(Br)ccc54)cc23)c1`, for which the IC50 worked out at 609 nM with MDA-MB-231, 13700 nM with NCI-H460, 7330 nM in the assay on A549 [1] and 17600 nM in the assay on NCI-H1299.
For `C#Cc1cccc(Nc2ncnc3cc(OCCOC)c(OCCOC(=O)CCCCC[N+]4=C(/C=C/C=C/C=C/C=C5/N(CCCCCC(=O)O)c6ccc(C)cc6C5(C)C)C(C)(C)c5cc(C)ccc54)cc23)c1`, in that order: 6210 nM, 5650 nM, 2100 nM and 4150 nM.
Consider `C#Cc1cccc(Nc2ncnc3cc(OCCOC)c(OCCOC(=O)CCCCC[N+]4=C(/C=C/C=C/C=C/C=C5/N(CCCC)c6ccc(OC)cc6C5(C)C)C(C)(C)c5cc(C(F)(F)F)ccc54)cc23)c1.[Br-]`, for which the IC50 in the assay with MDA-MB-231 came to 311 nM; in the assay with MCF-10A, 38600 nM; in the assay with NCI-H460 it was 301 nM; with A549 [1] it was 177 nM; in assay [2], 124 nM; in the assay on NCI-H1299, 79 nM. In addition, the “Ratio IC50” value (in the assay on A549 [3]; in assay [4]) was 14 throughout.
As for `C#Cc1cccc(Nc2ncnc3cc(OCCOC)c(OCCOC(=O)CCCCC[N+]4=C(/C=C/C=C/C=C/C=C5/N(CCCC)c6ccccc6C5(C)C)C(C)(C)c5cc(OC)ccc54)cc23)c1`, the IC50 with MDA-MB-231 is less than 125 nM; in the assay with NCI-H460, 2470 nM; in the assay with A549 [1] it was 3940 nM; with NCI-H1299 it was 680 nM.
For `C#Cc1cccc(Nc2ncnc3cc(OCCOC)c(OCCOC(=O)CCCCC[N+]4=C(/C=C/C5=C(Cl)C(=C/C=C6/N(CCCCCC(=O)O)c7ccc(OC)cc7C6(C)C)/CCC5)C(C)(C)c5cc(OC)ccc54)cc23)c1` the same measures were 4230 nM, 2700 nM, 1960 nM and 2210 nM.
Take `C#Cc1cccc(Nc2ncnc3cc(OCCOC)c(OCCOC(=O)CCCCC[N+]4=C(/C=C/C5=C(Cl)C(=C/C=C6/N(CCCCCC(=O)O)c7ccc(C)cc7C6(C)C)/CCC5)C(C)(C)c5cc(C)ccc54)cc23)c1`: the IC50 is 3360 nM in the assay on MDA-MB-231, 816 nM in the assay on NCI-H460, 2380 nM in the assay on A549 [1] and 1550 nM in the assay with NCI-H1299.
As for `C#Cc1cccc(Nc2ncnc3cc(OCCOC)c(OCCOC(=O)CCCCC[N+]4=C(/C=C/C=C/C=C/C=C5/N(CCCC)c6ccccc6C5(C)C)C(C)(C)c5cc(Br)ccc54)cc23)c1`, the concentration for half-maximal inhibition (IC50) is less than 125 nM in the assay on MDA-MB-231, 655 nM in the assay with NCI-H460, 579 nM with A549 [1] and 693 nM with NCI-H1299.
For the molecule `C#Cc1cccc(Nc2ncnc3cc(OCCOC)c(OCCOC(=O)CCCCC[N+]4=C(/C=C/C=C/C=C/C=C5/N(CCCC)c6ccccc6C5(C)C)C(C)(C)c5ccccc54)cc23)c1`, the IC50 with MDA-MB-231 was less than 125 nM; in the assay on MCF-10A it was 33200 nM; with NCI-H460 it was 570 nM; in the assay with A549 [1] it was 631 nM; with NCI-H1299 it was 2000 nM.
On to `C#Cc1cccc(Nc2ncnc3cc(OCCOC)c(OCCOC(=O)CCCCC[N+]4=C(/C=C/C=C/C=C/C=C5/N(CCCC)c6ccc(OC)cc6C5(C)C)C(C)(C)c5ccccc54)cc23)c1`, for which the IC50 in the assay on MDA-MB-231 came to 306 nM; in the assay with NCI-H460, 549 nM; with A549 [1], 388 nM; in the assay with NCI-H1299, 378 nM.
